{"source": "patent US20260284055A1", "about": "“FGFR4 INHIBITOR COMPOSITION, PREPARATION METHOD THEREFOR AND PHARMACEUTICAL USE THEREOF” (Abbisko Therapeutics Co., Ltd., priority 2023, published 2026)", "format_in_all_cases": "physicochemical", "key": {"[1]": {"experiment": "Content determination of active pharmaceutical ingredient (HPLC)", "description": "Chromatographic conditions: Octadecylsilane-bonded silica gel was used as the filler (Waters XBridge® C18, 4.6×150 mm, […] chromatographic column or chromatographic column with equivalent performance); a 0.1 vol % trifluoroacetic acid solution was used as mobile phase A, and a solution of 0.1 vol % trifluoroacetic acid in acetonitrile was used as mobile phase B; isocratic elution was performed with mobile phase A-mobile phase B (70:30); the detection wavelength was 232 nm, the flow rate was 1.0 mL/min, the column temperature was 40° C., the sample injection volume was 10 μL, and the run time was 10 min.\n(§1) The inventors first conducted a study on the physicochemical properties of the active pharmaceutical ingredient. The specific procedures were as follows: The active pharmaceutical ingredient and different auxiliary materials were mixed at different ratios and then placed under different conditions; the samples were taken out at different time points and then observed for appearance, hygroscopic weight gain, active pharmaceutical ingredient content, related substance content, etc."}, "[2]": {"experiment": "Micromeritic properties of powders (angle of repose, bulk density, tap density, Carr index, flowability)"}, "[3]": {"experiment": "Hygroscopic weight gain (gravimetric method)", "description": "Gravimetric method: The initial weight of a sample was measured, recorded as W1, and then the weight of the sample after being placed under high-humidity conditions for a certain period of time was measured, recorded as W2; the percentage of hygroscopic weight gain was calculated based on the weight difference, using the following calculation formula: (W2−W1)/W1*100%.\nas §1"}, "[4]": {"experiment": "Related substances (HPLC), compatibility and stability", "description": "Gradient elution was performed according to the table below, with a run time of 50.0 min and a post-run time of 5 min.\nas §1"}, "[5]": {"experiment": "Particle size distribution of active pharmaceutical ingredient (Malvern Mastersizer 2000)", "description": "The active pharmaceutical ingredient was mechanically milled, and samples were taken at different milling time points. The particle size distribution was determined using a Malvern Mastersizer 2000 laser particle size analyzer, and the particle morphology was observed using a polarizing microscope. [table]"}, "[6]": {"settings": "API of the capsule batch of the same table line"}}, "data": [{"smiles": "C=CC(=O)N[C@H]1CCOC[C@H]1Nc1ncc2cc(-c3c(F)c(OC)cc(OC)c3F)nc(N3CC(C)(OC)C3)c2n1.Cc1ccc(S(=O)(=O)O)cc1.O", "note": "[Active pharmaceutical ingredient, p-toluenesulfonate monohydrate of the compound of formula (I)]", "values": [{"measurement": "Content", "setting": "[1]; 0 d", "result": 100.5, "unit": "%"}, {"measurement": "Content", "setting": "[1]; 25° C./92.5% RH, 30 d", "result": 99.5, "unit": "%"}, {"measurement": "Content", "setting": "[1]; 40° C./75% RH, 30 d", "result": 98.6, "unit": "%"}, {"measurement": "Content", "setting": "[1]; 60° C., 30 d", "result": 102.5, "unit": "%"}, {"measurement": "Content", "setting": "[1]; Light exposure, 10 d", "result": 96.5, "unit": "%"}, {"measurement": "Angle of repose", "setting": "[2]", "result": 44.66, "unit": "°"}, {"measurement": "Bulk density", "setting": "[2]", "result": 0.447, "unit": "g/mL"}, {"measurement": "Carr index", "setting": "[2]", "result": 40, "unit": "%"}, {"measurement": "Tap density", "setting": "[2]", "result": 0.740, "unit": "g/mL"}, {"measurement": "Percentage change in hygroscopic weight gain", "setting": "[3]; 25° C./92.5% RH, 10 d", "result": 0.6, "unit": "%"}, {"measurement": "Percentage change in hygroscopic weight gain", "setting": "[3]; 25° C./92.5% RH, 30 d", "result": 0.3, "unit": "%"}, {"measurement": "Percentage change in hygroscopic weight gain", "setting": "[3]; 40° C./75% RH, 10 d", "result": 0.2, "unit": "%"}, {"measurement": "Percentage change in hygroscopic weight gain", "setting": "[3]; 40° C./75% RH, 30 d", "result": "−0.3", "unit": "%"}, {"measurement": "Hygroscopicity", "setting": "[3]; API alone", "result": "not highly hygroscopic"}, {"measurement": "Related substance (%)", "setting": "[4]; 0 d", "result": 0.66, "unit": "%"}, {"measurement": "Related substance (%)", "setting": "[4]; 25° C./92.5% RH (open), 30 d", "result": 0.98, "unit": "%"}, {"measurement": "Related substance (%)", "setting": "[4]; 25° C./92.5% RH (open), 30 d, listed as active pharmaceutical ingredient", "result": "slight increase in impurities"}, {"measurement": "Related substance (%)", "setting": "[4]; 40° C./75% RH (open), 30 d", "result": 0.58, "unit": "%"}, {"measurement": "Related substance (%)", "setting": "[4]; 40° C./75% RH (open), 30 d, listed as active pharmaceutical ingredient", "result": "remained stable"}, {"measurement": "Related substance (%)", "setting": "[4]; 60° C. (open), 30 d", "result": 0.66, "unit": "%"}, {"measurement": "Related substance (%)", "setting": "[4]; 60° C. (open), 30 d, listed as active pharmaceutical ingredient", "result": "remained stable"}, {"measurement": "RRT = 0.27 related substance content", "setting": "[4]; API", "result": "<0.05", "unit": "%"}, {"measurement": "RRT = 0.44 related substance content", "setting": "[4]; API", "result": 0.09, "unit": "%"}, {"measurement": "RRT = 0.56 related substance content", "setting": "[4]; API", "result": "<0.05", "unit": "%"}, {"measurement": "RRT = 0.71 related substance content", "setting": "[4]; API", "result": 0.05, "unit": "%"}, {"measurement": "RRT = 0.74 related substance content", "setting": "[4]; API", "result": 0.06, "unit": "%"}, {"measurement": "RRT = 0.88 related substance content", "setting": "[4]; API", "result": 0.06, "unit": "%"}, {"measurement": "RRT = 0.97 related substance content", "setting": "[4]; API", "result": "<0.05", "unit": "%"}, {"measurement": "RRT = 1.05 related substance content", "setting": "[4]; API", "result": "<0.05", "unit": "%"}, {"measurement": "RRT = 1.09 related substance content", "setting": "[4]; API", "result": "<0.05", "unit": "%"}, {"measurement": "RRT = 1.27 related substance content", "setting": "[4]; API", "result": 0.20, "unit": "%"}, {"measurement": "RRT = 2.00 related substance content", "setting": "[4]; API", "result": 0.14, "unit": "%"}, {"measurement": "Related substance", "setting": "[4]; API", "result": 0.60, "unit": "%"}, {"measurement": "API impurities: Single impurity", "setting": "[4]; [6]", "result": "Single impurity < 0.05%"}, {"measurement": "API impurities: Total impurities", "setting": "[4]; [6]", "result": "Total impurities < 0.05%"}, {"measurement": "Related substance (%)", "setting": "[4]; Light exposure (open), 10 d", "result": 0.64, "unit": "%"}, {"measurement": "Related substance (%)", "setting": "[4]; Light exposure (open), 10 d, listed as active pharmaceutical ingredient", "result": "remained stable"}, {"measurement": "single impurity (RRT=0.44)", "setting": "[4]; after 10 days of exposure to light", "result": 0.07, "unit": "%"}, {"measurement": "single impurity (RRT=0.44)", "setting": "[4]; before exposure to light", "result": "< 0.05", "unit": "%"}]}, {"smiles": "C=CC(=O)N[C@H]1CCOC[C@H]1Nc1ncc2cc(-c3c(F)c(OC)cc(OC)c3F)nc(N3CC(C)(OC)C3)c2n1", "note": "[Test 0]", "values": [{"measurement": "Particle size distribution D50", "setting": "[5]", "result": 155.607, "unit": "μm"}, {"measurement": "Particle size distribution D90", "setting": "[5]", "result": 333.563, "unit": "μm"}]}, {"smiles": "C=CC(=O)N[C@H]1CCOC[C@H]1Nc1ncc2cc(-c3c(F)c(OC)cc(OC)c3F)nc(N3CC(C)(OC)C3)c2n1", "note": "[Test 1]", "values": [{"measurement": "Particle size distribution D10", "setting": "[5]", "result": 2.168, "unit": "μm"}, {"measurement": "Particle size distribution D50", "setting": "[5]", "result": 14.763, "unit": "μm"}, {"measurement": "Particle size distribution D90", "setting": "[5]", "result": "D90 = 125.775 μm"}]}, {"smiles": "C=CC(=O)N[C@H]1CCOC[C@H]1Nc1ncc2cc(-c3c(F)c(OC)cc(OC)c3F)nc(N3CC(C)(OC)C3)c2n1", "note": "[Test 2]", "values": [{"measurement": "Particle size distribution D10", "setting": "[5]", "result": 1.509, "unit": "μm"}, {"measurement": "Particle size distribution D50", "setting": "[5]", "result": 9.682, "unit": "μm"}, {"measurement": "Particle size distribution D90", "setting": "[5]", "result": "D90 = 63.594 μm"}]}, {"smiles": "C=CC(=O)N[C@H]1CCOC[C@H]1Nc1ncc2cc(-c3c(F)c(OC)cc(OC)c3F)nc(N3CC(C)(OC)C3)c2n1", "note": "[Test 3]", "values": [{"measurement": "Particle size distribution D10", "setting": "[5]", "result": 1.298, "unit": "μm"}, {"measurement": "Particle size distribution D50", "setting": "[5]", "result": 8.279, "unit": "μm"}, {"measurement": "Particle size distribution D90", "setting": "[5]", "result": "D90 = 43.137 μm"}]}]}
